ChEMBL document CHEMBL1201862, “PubChem BioAssay data set” (2004)
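Grown in 96-well plates, cells were treated for 48 hours with each compound at five concentrations. Insufficient inhibition: endpoint recorded as highest concentration tested. GI50: concentration for 50% inhibition of growth.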 Activity calls are given as the source filed them. Cut-off read from the data, not from the text of the source: active = GI50 up to about 1.1 µM and inactive = higher. Square brackets hold non-standard residues; d marks the D form. Peptide text beside a SMILES is read from it. * marks the point of attachment. Boc = CC(C)(C)OC(=O)*; Lac = C[CH](O)C(=O)O; OBn = c1ccc(CO*)cc1

Key:
Assay in all cases: growth of human tumour cells (NCI), 48 h
[1] = tested on: HCT-15
[2] = tested on: K562
[3] = tested on: SF-268
[4] = tested on: COLO 205
[5] = tested on: HL-60
[6] = tested on: SK-MEL-2
[7] = tested on: OVCAR-5
[8] = tested on: HT-29
[9] = tested on: HOP-62
[10] = tested on: U-251
[11] = tested on: M14
[12] = tested on: SNB-19
[13] = tested on: SN12C
[14] = tested on: OVCAR-4
[15] = tested on: IGROV-1
[16] = tested on: HCC 2998
[17] = tested on: UACC-62
[18] = tested on: RPMI-8226
[19] = tested on: NCI-H522
[20] = tested on: A498

| Structure (SMILES) | GI50 [1] [µM] | GI50 [2] | GI50 [3] | GI50 [4] | GI50 [5] | GI50 [6] | GI50 [7] | GI50 [8] | GI50 [9] | GI50 [10] | GI50 [11] | GI50 [12] | GI50 [13] | GI50 [14] | GI50 [15] | GI50 [16] | GI50 [17] | GI50 [18] | GI50 [19] | GI50 [20] |
| --- | --- | --- | --- | --- | --- | --- | --- | --- | --- | --- | --- | --- | --- | --- | --- | --- | --- | --- | --- | --- |
| COc1ccc(C(=O)NNC(=O)c2nsc3ccccc23)cc1 | 41.7 | 39.4 µM (inactive) | > 100 µM (inactive) | > 100 µM (inactive) | 23.3 µM (inactive) | > 100 µM (inactive) | > 100 µM (inactive) | 61.7 µM (inactive) | 44.5 µM (inactive) | 41.1 µM (inactive) | 85.7 µM (inactive) | > 100 µM (inactive) | > 100 µM (inactive) | 68.9 µM (inactive) | > 100 µM (inactive) | > 100 µM (inactive) | > 100 µM (inactive) | 52.5 µM (inactive) | – | – |
| CCOC(=O)C1CCn2c(nc3c2c(=O)n(C)c(=O)n3C)S1 (stereo not given) | > 100 | > 100 µM (inactive) | > 100 µM (inactive) | – | > 100 µM (inactive) | > 100 µM (inactive) | > 100 µM (inactive) | > 100 µM (inactive) | > 100 µM (inactive) | > 100 µM (inactive) | > 100 µM (inactive) | > 100 µM (inactive) | > 100 µM (inactive) | > 100 µM (inactive) | > 100 µM (inactive) | – | > 100 µM (inactive) | > 100 µM (inactive) | > 100 µM (inactive) | – |
| CCC(=O)NC(Nc1cccc(F)c1)(C(F)(F)F)C(F)(F)F | > 100 | > 100 µM (inactive) | > 100 µM (inactive) | > 100 µM (inactive) | 86.9 µM (inactive) | > 100 µM (inactive) | > 100 µM (inactive) | > 100 µM (inactive) | – | 90.6 µM (inactive) | > 100 µM (inactive) | > 100 µM (inactive) | 37.7 µM (inactive) | > 100 µM (inactive) | > 100 µM (inactive) | > 100 µM (inactive) | > 100 µM (inactive) | > 100 µM (inactive) | 29.6 µM (inactive) | – |
| O=C(NN1C(=O)CSC1c1cccc(F)c1)c1ccncc1 (stereo not given) | > 100 | > 100 µM (inactive) | > 100 µM (inactive) | > 100 µM (inactive) | > 100 µM (inactive) | > 100 µM (inactive) | > 100 µM (inactive) | > 100 µM (inactive) | – | > 100 µM (inactive) | > 100 µM (inactive) | > 100 µM (inactive) | > 100 µM (inactive) | > 100 µM (inactive) | > 100 µM (inactive) | > 100 µM (inactive) | > 100 µM (inactive) | > 100 µM (inactive) | > 100 µM (inactive) | > 100 µM (inactive) |
| C[C@H]1S[C@@H](c2ccc(Cl)cc2Cl)N(NC(=O)c2ccncc2)C1=O | 47.9 | 28.1 µM (inactive) | – | 70.6 µM (inactive) | 98.4 µM (inactive) | 27.3 µM (inactive) | 95.9 µM (inactive) | > 100 µM (inactive) | > 100 µM (inactive) | 64 µM (inactive) | 61.8 µM (inactive) | 62.4 µM (inactive) | 71.3 µM (inactive) | > 100 µM (inactive) | > 100 µM (inactive) | – | 29.6 µM (inactive) | 40.2 µM (inactive) | 37.8 µM (inactive) | > 100 µM (inactive) |
| Nc1ccccc1C(=O)N/N=C1\C(=O)Nc2ccccc21 | > 100 | > 100 µM (inactive) | 88.7 µM (inactive) | > 100 µM (inactive) | – | > 100 µM (inactive) | > 100 µM (inactive) | > 100 µM (inactive) | 43.6 µM (inactive) | 40.2 µM (inactive) | > 100 µM (inactive) | 35.4 µM (inactive) | > 100 µM (inactive) | > 100 µM (inactive) | 64 µM (inactive) | > 100 µM (inactive) | > 100 µM (inactive) | – | 89.9 µM (inactive) | 33.2 µM (inactive) |
| Cc1cc(=O)c2c([nH]1)NS(=O)(=O)NC2=O | > 100 | > 100 µM (inactive) | > 100 µM (inactive) | > 100 µM (inactive) | > 100 µM (inactive) | > 100 µM (inactive) | – | > 100 µM (inactive) | > 100 µM (inactive) | – | > 100 µM (inactive) | > 100 µM (inactive) | > 100 µM (inactive) | > 100 µM (inactive) | > 100 µM (inactive) | > 100 µM (inactive) | > 100 µM (inactive) | > 100 µM (inactive) | > 100 µM (inactive) | > 100 µM (inactive) |
| Cc1n[nH]c(CC#N)n1 | > 100 | > 100 µM (inactive) | > 100 µM (inactive) | > 100 µM (inactive) | – | > 100 µM (inactive) | > 100 µM (inactive) | > 100 µM (inactive) | > 100 µM (inactive) | > 100 µM (inactive) | > 100 µM (inactive) | > 100 µM (inactive) | > 100 µM (inactive) | > 100 µM (inactive) | > 100 µM (inactive) | > 100 µM (inactive) | > 100 µM (inactive) | > 100 µM (inactive) | > 100 µM (inactive) | – |
| CC1CC2=C(S(=O)(=O)c3ccccc3)CC(S(=O)(=O)c3ccccc3)(S(=O)(=O)c3ccccc3)CC21 (stereo not given) | > 100 | 38.7 µM (inactive) | > 100 µM (inactive) | > 100 µM (inactive) | 16.6 µM (inactive) | > 100 µM (inactive) | > 100 µM (inactive) | > 100 µM (inactive) | > 100 µM (inactive) | 72.6 µM (inactive) | > 100 µM (inactive) | > 100 µM (inactive) | > 100 µM (inactive) | > 100 µM (inactive) | > 100 µM (inactive) | > 100 µM (inactive) | > 100 µM (inactive) | 88.1 µM (inactive) | – | > 100 µM (inactive) |
| Cc1cc(=O)oc2c1cc1ccc3cccc4ccc2c1c34 | > 100 | > 100 µM (inactive) | > 100 µM (inactive) | > 100 µM (inactive) | > 100 µM (inactive) | > 100 µM (inactive) | – | > 100 µM (inactive) | – | 41.2 µM (inactive) | > 100 µM (inactive) | 64.7 µM (inactive) | > 100 µM (inactive) | – | > 100 µM (inactive) | – | > 100 µM (inactive) | > 100 µM (inactive) | 64.7 µM (inactive) | > 100 µM (inactive) |
| O=C1Nc2ccc(Cl)cc2/C1=C\c1c(Cl)nc2sccn12 | 2.67 | 0.156 µM (active) | > 100 µM (inactive) | – | 4.07 µM (inactive) | 0.314 µM (active) | 14.7 µM (inactive) | – | 13.9 µM (inactive) | 2.93 µM (inactive) | 34.2 µM (inactive) | > 100 µM (inactive) | > 100 µM (inactive) | > 100 µM (inactive) | 8.51 µM (inactive) | 2.14 µM (inactive) | – | 0.0514 µM (active) | 5.62 µM (inactive) | 0.0632 µM (active) |
| COP(=O)(OC)C(N)Cc1c[nH]c2ccccc12 (stereo not given) | > 100 | > 100 µM (inactive) | – | > 100 µM (inactive) | – | > 100 µM (inactive) | > 100 µM (inactive) | > 100 µM (inactive) | > 100 µM (inactive) | > 100 µM (inactive) | > 100 µM (inactive) | > 100 µM (inactive) | > 100 µM (inactive) | > 100 µM (inactive) | > 100 µM (inactive) | > 100 µM (inactive) | – | > 100 µM (inactive) | > 100 µM (inactive) | > 100 µM (inactive) |
| O=C1CCC(NC(=O)Cc2ccc(O)cc2)C(=O)N1 (stereo not given) | > 2500 | – | > 2500 µM (inactive) | > 2500 µM (inactive) | – | – | > 2500 µM (inactive) | > 2500 µM (inactive) | – | > 2500 µM (inactive) | > 2500 µM (inactive) | > 2500 µM (inactive) | > 2500 µM (inactive) | > 2500 µM (inactive) | > 2500 µM (inactive) | – | > 2500 µM (inactive) | – | > 2500 µM (inactive) | > 2500 µM (inactive) |
| CC1CC(C[N+](=O)[O-])CC2(C1)OCCO2 (stereo not given) | > 100 | > 100 µM (inactive) | > 100 µM (inactive) | > 100 µM (inactive) | > 100 µM (inactive) | > 100 µM (inactive) | – | – | > 100 µM (inactive) | > 100 µM (inactive) | > 100 µM (inactive) | > 100 µM (inactive) | > 100 µM (inactive) | > 100 µM (inactive) | > 100 µM (inactive) | > 100 µM (inactive) | > 100 µM (inactive) | > 100 µM (inactive) | > 100 µM (inactive) | > 100 µM (inactive) |
| COc1ccccc1N1C(=O)/C(=C\c2cc(OC)c(OC)c(OC)c2)SC1c1ccccc1 (stereo not given) | 44.7 | 4.33 µM (inactive) | 31.6 µM (inactive) | 24.1 µM (inactive) | 26.2 µM (inactive) | 68.4 µM (inactive) | > 100 µM (inactive) | 45.3 µM (inactive) | 27.8 µM (inactive) | 24.4 µM (inactive) | 16.5 µM (inactive) | 27 µM (inactive) | 91 µM (inactive) | 49.4 µM (inactive) | – | > 100 µM (inactive) | 36.1 µM (inactive) | 3.11 µM (inactive) | 13.7 µM (inactive) | > 100 µM (inactive) |
| CC(OC(=O)C(Cc1ccccc1)NC(=O)C(Cc1ccccc1)NC(=O)OC(C)(C)C)C(=O)OCc1ccccc1 (stereo not drawn) (Boc-Phe-Phe-[Lac]-OBn; configuration not given here) | > 100 | > 100 µM (inactive) | – | > 100 µM (inactive) | > 100 µM (inactive) | > 100 µM (inactive) | > 100 µM (inactive) | – | > 100 µM (inactive) | > 100 µM (inactive) | 87.1 µM (inactive) | > 100 µM (inactive) | > 100 µM (inactive) | – | > 100 µM (inactive) | > 100 µM (inactive) | > 10 µM (inactive) | 94 µM (inactive) | > 100 µM (inactive) | – |
